This is an account of results in US20070041934A1, “Dendrimer based compositions and methods of using the same” (priority 2005, published 2007).

For data set [1] the following is noted: mouse, in vivo.
Experimental: (§1) Delivery of targeted nanoparticle therapeutic. Twice weekly, SCID mice with s.c. KB xenografts, starting on day 4 after tumor implantation, received via the tail vein an injection of either targeted or nontargeted conjugate containing methotrexate, a conjugate without methotrexate, free methotrexate, or saline as a control. The compounds were delivered in a 0.2 mL volume of saline per 20 g of mouse. The single dose of methotrexate delivered each time equaled 0.33 mg/kg. The higher doses of 1.67 and 3.33 mg/kg free methotrexate were also tested. The conjugates were delivered at equimolar concentration of methotrexate calculated based on the number of methotrexate molecules present in a nanoparticle. The conjugate without methotrexate was delivered at equimolar concentration of dendrimer. In the initial trial, six groups of mice with five mice in each group received up to 15 injections. In the follow-up trial, mice received up to 28 injections dependent on their survival. The body weights of the mice were monitored throughout the experiment as an indication of adverse effects of the drug. Histopathology of multiple organs was done at the termination of each trial and each time mouse had to be euthanized due to toxic effects or tumor burden. Tissues from lung, heart, liver, pancreas, spleen, kidney, and tumor were analyzed.
Toxicity of dendrimer conjugates. […]
Data set [2] relates to s.c. human KB xenografts. In words: Targeted drug delivery to tumor, tumor growth and survival. The data set is classed as in vivo, SCID mice. The following applies: for effect on tumor growth: first trial. The method, then: Delivery of targeted nanoparticle therapeutic.
Statistical methods. Means, SD, and SE of the data were calculated. Differences between the experimental groups and the control groups were tested using Student's-Newman-Keuls' test and Ps<0.05 were considered significant.
Targeted drug delivery to tumor cells through the folate receptor. The efficacy of different doses of conjugates was tested on SCID CB-17 mice bearing s.c. human KB xenografts and was compared with equivalent and higher doses of free methotrexate. Mice were maintained on the folic acid-deficient diet for 3 weeks before injection of the KB tumor cells to achieve circulating levels of folic acid that approach those in human serum and to prevent down-regulation of folate receptors on tumor xenografts (See, Mathias et al., J Nucl Med 29, 1579 (1998)). Six groups of SCID mice with five mice in each group were injected s.c. on one flank with 5×10^6 KB cells in 0.2 mL PBS suspension. The highest total dose of G5-FI-FA-MTX therapeutic used equals 55.0 mg/kg and is equivalent to a 5.0 mg/kg total cumulative dose of free methotrexate (FIG. 29). The therapeutic dose of the conjugate was compared with three cumulative doses of free methotrexate equivalent to 33.3, 21.7, and 5.0 mg/kg accumulated in 10 to 15 injections based on mouse survival. Saline and the conjugate without methotrexate (G5-FI-FA) were used as controls.

Data set [3] in a line: Toxicity of dendrimer conjugates and free methotrexate in mice. The following applies: cumulative doses 33.3 and 21.7 mg/kg.
Experimental: as §1
Toxicity of dendrimer conjugates. […]
The subject of data set [4] is KB cells. In words: Cell growth inhibition (XTT assay / total cell protein). It is filed as cell-based, human. As for the experimental part:
Cell culture and treatment. KB cells were maintained in folate-free medium containing 10% serum (See, e.g., Quintana et al, Pharm. Res. 19, 1310 (2002)) to provide extracellular FA similar to that found in human serum. Cells were plated in 12-well plates for uptake studies, in 24-well plates for cell growth analysis, and in 96-well plates for XTT assay. Cells were rinsed with FA-free medium containing dialyzed serum and incubated at 37° C. with dendrimer-drug conjugates for the indicated time periods and concentrations. KB cells were also maintained in RPMI medium containing 2 μM FA to obtain cells which express low FAR.
Evaluation of dendrimer cytotoxicity. Cell growth was determined by assay of the total protein in lysates of treated cells using a bicinchoninic acid reagent (PIERCE, and by XTT assay, using a kit from Roche.
Because the binding of the conjugate to KB cells reaches maximal uptake within 1 h (Quintana et al, 2002. Pharmaceutical Research 19: 1310-1316.), the effect of the G5-FI-FA-MTX on cell growth was initially tested by pre-incubation of cells with the conjugate for 1 h, followed by incubation in a drug-free medium for 5 d. […] When the cells were pre-incubated with dendrimers for 4 h, there was a modest decrease of about 10% in cell growth as determined by XTT assay. The cytotoxicity measurements were therefore done by incubation with the dendrimer for a minimum of 24 h, a pre-incubation time period shown to induce significant cytotoxicity.
Time course and dose dependent inhibition of cell growth. Previous studies have shown that MTX-induced cytotoxicity is detectable in vitro only if the medium is completely deprived of FA (See, e.g., Sobrero & Bertino, Int. J. Cell Cloning 4, 51 (1986)). The effect of the trifunctional dendrimers on cell growth was tested in cells incubated in a FA-deficient medium. Cells were treated with 300 nM conjugates (equivalent of 1500 nM MTX) or 1500 nM free MTX for 1-4 days, and cell proliferation was determined by estimation of cellular protein content. Cells were treated for 2 days with different concentrations of the conjugates or free MTX (the conjugate concentration is given as MTX equivalents, with 5 MTX per dendrimer molecule). KB cells which express high and low FAR were incubated with 30 nM of the dendrimers for 1 hr at 37° C., rinsed, and the fluorescence of cells was determined by flow cytometric analysis (See. e.g., FIG. 21, left panel). Pre-incubation with 50 μM free FA for 30 min totally prevents cellular binding and uptake of the polymer conjugates (See. e.g., FIG. 21, left panel).
The inhibition of cell growth induced by the conjugates was also tested by XTT assay which is based on the conversion of XTT to formazan by the active mitochondria of live cells (See, e.g., Roehm et al, J Immunol Methods 142, 257 (1991)).
As growth inhibition induced by free MTX was higher than with the equimolar concentrations of MTX in the G5-FITC-FA-MTX below 1 μM (See, e.g., FIG. 21), it was tested whether the FA moiety in the G5-FITC-FA-MTX may be rescuing the cells from MTX-induced cytotoxicity. As the G5-FITC-FA-MTX preparation contained equimolar concentrations of MTX and FA, the effect of similar concentrations of free MTX and free FA on the inhibition of cell growth was determined. […] The cells were rinsed to remove the drugs and incubated with fresh medium for an additional 6 d, and total cell protein was determined. […]
Background: Formazan colour is commonly taken as a measure of viable cells.

As for `CN(Cc1cnc2nc(N)nc(N)c2n1)c1ccc(C(=O)N[C@@H](CCC(=O)O)C(=O)O)cc1` [MTX, methotrexate], the “histopathology of the liver” value in data set [1] was “advanced liver lesions, collections of inflammatory cells, and periportal inflammation”. For the same compound, the “effect on tumor growth” value in data set [2] (cumulative dose equivalent to 5.0 mg/kg methotrexate (or equimolar dendrimer)) was “no effect on tumor growth”; in data set [2] (cumulative doses 33.3 and 21.7 mg/kg) it was “affecting tumor growth”. In data set [2] (second 99-day trial), the “day of trial by which all mice died” value is at most 66 days. The “survivors at the termination of the trial” value in data set [2] (second 99-day trial) was “no mice surviving”. Further, in data set [3], the “day of trial by which dose became lethal” value is recorded as 32 to 36 days. In addition, in data set [4] (1, 2 or 3 days), the “growth inhibition by XTT assay” value was “time-dependent cytotoxicity”. For the same compound, the “inhibition of cell growth” value in data set [4] (FA-deficient medium, time course and dose dependence (FIGS. 21 and 22)) was “inhibited cell growth in a time- and dose-dependent fashion”. Moreover, in data set [4] (below 1 μM), the “growth inhibition compared with equimolar MTX in G5-FITC-FA-MTX” value was “higher”.
Consider `Nc1nc2ncc(CNc3ccc(C(=O)N[C@@H](CCC(=O)O)C(=O)O)cc3)nc2c(=O)[nH]1` [FA, folic acid], for which the “reversal of MTX-induced growth-arrest by free FA” value in data set [4] (150 nM FA with 150 nM MTX, 24 h, then 6 d fresh medium, total cell protein) is given as “almost completely reversed the growth-arrest”. Besides, the “increase of cell growth above that of the control cells” value in data set [4] (50 μM free FA with conjugate or free MTX 24 h, then 5 days, XTT) is on record as 20%.
